Test results from US20170266155A1, “METHOD FOR ENHANCING THE OXYGENATION LEVEL OF TISSUE CELLS AS AN ALTERNATIVE METHOD FOR HYPERBARIC OXYGEN THERAPY” (National Sun Yat-sen University, priority 2016, published 2017).

Biological target: hemoglobin (Hb) (Homo sapiens, UniProt P68871+P69905)
Assay: Oxygen equilibrium curves and P50 value of hemoglobin (Hb)
Assay type: biochemical
Conditions: for effect of phthalide compound together with 2,3-BPG on oxygen release efficiency of hemoglobin (Hb): combined with 2,3-BPG (FIG. 1)
Source text: The oxygen affinity of hemoglobin (Hb) is commonly characterized by P50 value. The P50 value is the required oxygen partial pressure to achieve 50% oxygen saturation of hemoglobin. […] An increased blood PCO2, a decreased pH or an increased 2,3-BPG level in erythrocytes can all decrease the oxygen affinity of hemoglobin (Hb), so that the oxygen equilibrium curve shifts to the right and the P50 value increases (as shown in FIG. 2); contrarily, when the oxygen affinity of hemoglobin (Hb) increases, the oxygen equilibrium curve shifts to the left and the P50 value decreases.
The oxygen affinity of hemoglobin (Hb) was commonly characterized by P50 value. The P50 value was the required oxygen partial pressure to achieve 50% oxygen saturation for hemoglobin. […] An increased blood PCO2, a decreased pH or an increased 2,3-BPG concentration in erythrocytes could decrease the oxygen affinity of hemoglobin (Hb), as a result, the oxygen equilibrium curve shifted to the right and the P50 value increased (as shown in FIG. 2); contrarily, when the oxygen affinity of hemoglobin (Hb) increased, the oxygen equilibrium curve shifted to the left and the P50 value decreased.

Sequence of hemoglobin (Hb) (P69905 2-142 limits assumed): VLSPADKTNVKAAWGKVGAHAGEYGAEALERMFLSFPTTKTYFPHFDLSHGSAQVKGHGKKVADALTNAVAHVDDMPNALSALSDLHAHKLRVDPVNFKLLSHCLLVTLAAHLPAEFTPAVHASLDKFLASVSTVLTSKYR
Sequence of hemoglobin (Hb) (P68871 2-147 limits assumed): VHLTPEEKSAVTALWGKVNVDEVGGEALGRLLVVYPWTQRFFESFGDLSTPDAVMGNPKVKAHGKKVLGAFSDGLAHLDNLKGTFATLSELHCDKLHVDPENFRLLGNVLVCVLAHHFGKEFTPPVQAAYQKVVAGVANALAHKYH

## O=C(O)C(COP(=O)(O)O)OP(=O)(O)O (stereo not drawn) [2,3-BPG, 2,3-bisphosphorglycerate]
12 mM 2,3-BPG, fixed oxygen partial pressure of 20 mmHg, 80% where no 2,3-BPG is present (FIG. 3)
  oxygen saturation fraction of hemoglobin (Hb): 35%
12 mM 2,3-BPG, oxygen partial pressure 20 mmHg, 20% without 2,3-BPG
  oxygen release efficiency of Hb: 65%
2,3-BPG concentrations 0.2-12 mM (FIG. 3)
  P50 value / shift of oxygen equilibrium curve with concentration: the P50 value is higher
PO2=20 mmHg, 1.2 mM 2,3-BPG alone
  oxygen release efficiency: 40%
PO2=20 mmHg, 1.2 mM 2,3-BPG alone (FIG. 6)
  oxygen saturation fraction: approximately 60%
Approximately 4 mM 2,3-BPG, no phthalide compound (FIG. 5)
  P50 value of hemoglobin (Hb): 18.8 mmHg

## CCC/C=C1\OC(=O)c2ccccc21 [Z-Butylidenephthalide, Z-butylidenephthalide]
Shortest detection time frame (30 minutes) (FIG. 2)
  effect on oxygen release efficiency of hemoglobin (Hb) from resulting P50 values: increasing the oxygen release efficiency of hemoglobin (Hb)

## CCC/C=C1\OC(=O)C2=C1CCC=C2 [Z-ligustilide]
  effect of phthalide compound together with 2,3-BPG on oxygen release efficiency of hemoglobin (Hb): synergistic effect

## CCC/C=C1\OC(=O)C2=C1CC[C@@H](O)[C@@H]2O [senkyunolide I]
  effect of phthalide compound together with 2,3-BPG on oxygen release efficiency of hemoglobin (Hb): synergistic effect
